Legend:
healthy subjects [1] = test: Double-blind, placebo-controlled dose titration clinical study; heart rate by continuous telemetry and Holter; format: in vivo, human
Method: A single-center, double-blind, placebo-controlled, dose titration, once-daily, multiple-oral-dose clinical study in healthy subjects was conducted to evaluate the effect of a dosage regimen of FTY720 according to the present invention. A total of 36 subjects were randomly assigned to one of the three groups. Each subject participated in a screening period of maximal 21 days, a baseline period (Day −1), a 9-day dose-administration period, and clinical study completion assessments on Day 10. Subjects were assigned to one of the three groups (dose titration regimen group, placebo Control group, or active control group) and received the once daily dose in a double-blinded manner (Table 1). In the dose titration group, increasing once daily doses of Compound A (FTY720), starting at 0.125 mg o.d. and ending at the maximal therapeutic dose of 1.25 mg o.d. were administered on days 1 to 9 of the study according to the schedule shown in Table 1 below. The placebo control group received placebo through out the duration of the study and the active control group received a once daily dose of 1.25 mg of FTY720 on days 1 to 9. [table] On Day −1 (baseline), subjects will undergo baseline assessments including 24 hour holter monitoring and telemetry assessments. Pharmacodynamic and safety assessments are performed up to 24 hours post last dose. Heart rate is monitored via telemetry on Day −1 through Day 10, 24 hour after the last dosing. Heart rhythm is assessed via 24 hr continuous holter monitoring on Day −1, Day 1, and Day 9. For each dosing for each subject, the drug is administered as closely as practically possible to the time administered on Day −1. Safety assessments includes physical examinations, vital signs and body measurements, 12-lead ECG evaluations, standard clinical laboratory evaluations hematology, blood chemistry, urinalysis, adverse event and serious adverse event monitoring. Systolic and diastolic blood pressure and pulse are measured after the subject has rested quietly in the sitting position for at least 3 minutes. Blood pressure is measured at the same arm on each occasion. Standard 12-lead ECGs are recorded at Screening, baseline, 4 hours post-dose on Day 1 and Day 8, and at Study Completion. The variables recorded are: date and time of ECG, heart rate. PR interval, QT interval (uncorrected), QTcB, QRS duration. The overall interpretation is collected with a Yes/No statement to confirm if any clinically relevant abnormalities are present, which needs to be specified further. Subjects remain on continuous telemetry, starting before breakfast on Day −1 and proceeding throughout the administration period up to Day 10 (24 hour after the last dose). Over this ten day duration of continuous heart rate collection for each subject, one heart rate value is obtained every minute (‘minute unit heart rate’), representing the average heart rate value over that minute. The heart rate database for each subject contains approximately 14,400 data points (10 days×24 hr×60 min). 24-hour continuous Holter-ECG data are captured via a digital Holter monitor (12-lead, on Days −1, 1, 6, and 8), and transferred for interpretation and reporting. Hotter monitoring starts approximately at 7:00 and the time of dose administration is regarded as the time “0 hours'. Holter “cuts” are derived from the dataset at 1 hour intervals starting from Day −1 and continuing for 24 hours or the end of the cleaned Hotter monitoring dataset. Cardiac conduction intervals: arrhythmia monitoring includes the frequency and duration of sinus pauses (>2 sec and >3 sec) and atrio-ventricular blocks. Frequency and duration of atrial and ventricular ectopy and sinus rhythm are also recorded. The daily chronotropic effect is defined as the percent decrease in HRmin (minimum heart rate) between two consecutive days. It is calculated on days 1 to 9.

healthy subjects [2] = details: administration of 1.25 mg; cited from earlier work
multiple sclerosis = details: humans; Mehling et al. 2008, Kappos et al. 2006; cited from earlier work
[3] = FTY720 1.25 mg once daily treatment group (active control), oral, healthy subjects

In the case of `CCCCCCCCc1ccc(CCC(N)(CO)CO)cc1.Cl` [FTY720, 2-amino-2-[2-(4-octylphenyl)ethyl]propane-1,3-diol], the “additional decrease in heart rate (daily average) from Day 1 to Day 2” value (healthy subjects [1]; [3]) was “approximately 3 BPM”, the “decrease in heart rate (daily average) from Day -1 to Day 1” value (healthy subjects [1]; [3]) was “approximately 8 BPM” and the “gradual decrease in heart rate per day” value (healthy subjects [1]; FTY720 titration group (0.125/0.25/0.5/1.25 mg o.d.), over the eight day course of the dose titration) was 1-2 BPM per day. For the same molecule, the “dip in heart rate on initiation of 1.25 mg compared to the preceding days” value (healthy subjects [1]; FTY720 titration group, initiation of 1.25 mg on Day 8) was “does not result in dip in heart rate”, the “daily minimum heart rates during the course of the study” value (healthy subjects [1]; dose titration regimen compared with the FTY720 1.25 mg group) was “improved daily minimum heart rates” and the “negative chronotropic effect seen on Day 1 of treatment initiation” value (healthy subjects [1]; dose titration regimen versus 1.25 mg o.d. from Day 1) was “attenuates the negative chronotropic effect”. For the same molecule, the “decrease in heart rate” value (healthy subjects [2]) was “approximately 8 beats/min (BPM)” and the “efficacy in the treatment of multiple sclerosis” value (multiple sclerosis) was “has been demonstrated in humans”.
